What all share (experiment): NCI anticancer screen, dose series, 48 h
In assay [1] the test system is HOP-62 NSCLC.
For assay [2], the system named is BT-549 breast.
Assay [3] concerns SK-MEL-28 melanoma.
For assay [4], the system named is MDA-MB-435.
Assay [5] has as its system RPMI-8226 leukemia.
Assay [6] has as its system UACC-62 melanoma.
Assay [7] has as its system DU-145 prostate.
For assay [8], the system named is SW-620 colon.
Assay [9] concerns OVCAR-3 ovarian.
Assay [10] concerns EKVX NSCLC.

Molecules are shown by their SMILES. “And” between values parts separate entries of the source, which are not always exact repeats. Equal values may be shown once.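 Following 48 hours of exposure in 96-well plates, responses at five concentrations were used to interpolate endpoints linearly. GI50 = concentration required for 50% inhibition of growth. TGI is the concentration that stops growth completely.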

The record followed here is PubChem BioAssay (NCI).

For the molecule `O=C(NNc1ccc(F)cc1)C1CCC(CNS(=O)(=O)c2ccc(Cl)c(Cl)c2)CC1` (stereo not drawn), the GI50 in [1] is 15.9 µM; in assay [2], 19.1 µM; in assay [3], over 50 µM; in [4], 2.01 µM; in [5], 3.36 µM; in assay [6], 1.98 µM. The GI50 in assay [7] is 5.52 µM; in assay [8], 9.03 µM; in [9], 2.11 µM; in assay [10] it was 7.98 µM. In addition, the TGI in [1] is over 50 µM; in [2], over 50 µM; in [3], over 50 µM; in assay [4] it was 35.1 µM; in assay [5] it was 24.2 µM; in assay [6] it was 23.4 µM. Further, the TGI in [7] was over 50 µM; in assay [8] it was over 50 µM; in [9] it was 13.9 µM; in [10], over 50 µM.
On to `CCCCCCCCCCC/C=C\C[C@H](O)C/C=C1/C(=O)C=C[C@@H]1C/C=C\CCCC(=O)OC`, for which the GI50 in assay [1] was 1.01 µM; in [2], 0.75 µM; in assay [3], 0.84 µM; in [4], 0.71 µM; in [5], 0.534 µM; in assay [6], 0.553 µM. Besides, the GI50 in [7] was 1.35 µM; in [8] it was 1.09 µM; in [9], 0.671 µM; in assay [10] it was 0.766 µM. In addition, the TGI in assay [1] was 3.51 µM; in assay [2] it was 1.8 µM; in assay [3], 2.31 µM; in assay [4], 1.8 µM; in assay [5], 1.62 µM; in assay [6] it was 1.33 µM. Also, the TGI came out at 5.57 µM in assay [7], 4.05 µM in assay [8], 1.49 µM in assay [9] and 2.04 µM in assay [10].
As for `O=S1(=O)NC2CCC3NS(=O)(=O)NC4CCC(N1)N4S(=O)(=O)N23` (stereo not drawn), the TGI in assay [1], in assay [2], in assay [3], in [4], in [5] and in [6] was over 100 µM each time. In addition, the TGI in assay [7], in assay [8], in assay [9] and in assay [10] was over 100 µM throughout.
In the case of `Cn1c2ccccc2c(=O)c2c(O)cc3c(c21)CC(C1(C)CO1)O3` (stereo not drawn), the TGI in assay [1] came out at 11.3 µM; in assay [2], 4.5 µM; in assay [3], 7.59 µM; in [4], 3.07 µM; in assay [5], 22.6 µM; in assay [6], 4.9 µM. The TGI in assay [7] was 36.1 µM; in assay [8] it was 3.38 µM; in [9], 12.9 µM; in assay [10], 14 µM.
Regarding `c1cc(CSSCc2ccncc2)ccn1`, the TGI in assay [1] is over 100 µM; in assay [2], over 100 µM; in assay [3], over 100 µM; in [4], over 68.3 µM; in assay [5] it was over 65.3 µM; in assay [6], over 100 µM. Further, the TGI is over 66.4 µM in assay [7], over 100 µM in [8], over 100 µM in [9] and over 100 µM in assay [10].
Consider `COC(C(=O)C(O)C(C)O)C1Cc2cc3cc(OC4CC(OC5CC(O)C(O)C(C)O5)C(O)C(C)O4)c(C)c(O)c3c(O)c2C(=O)C1OC1CC(OC2CC(O)C(OC3CC(C)(O)C(O)C(C)O3)C(C)O2)C(O)C(C)O1` (stereo not drawn), for which the GI50 in assay [1] was 11.2 ng/mL and 0.0327 ng/mL; in [2], 15 ng/mL; in assay [3], 11.2 ng/mL and 0.611 ng/mL; in assay [4], 12.1 ng/mL and 339 ng/mL; in assay [5] it was 11.2 ng/mL and 1.64 ng/mL; in assay [6], 11.2 ng/mL and 0.54 ng/mL. The GI50 was 27.4 ng/mL and 43.5 ng/mL in [7]; 12.1 ng/mL and 2.36 ng/mL in [8]; 11.2 ng/mL and 4.13 ng/mL in [9]; 18.8 ng/mL and 0.265 ng/mL in assay [10]. Moreover, the TGI in assay [2] was 73.9 ng/mL; in [5], 507 ng/mL and 191 ng/mL; in assay [7] it was 112000 ng/mL and 127000 ng/mL.
In the case of `CC(C)(CCN=C(N)Nc1ccccn1)c1ccc(C(F)(F)F)cc1`, the GI50 in assay [1] was 15.7 µM; in assay [2], 15.1 µM; in assay [3] it was 15.8 µM; in assay [4], 15.1 µM; in [5], 6.58 µM; in assay [6] it was 15.7 µM. In addition, the GI50 was 16.2 µM in assay [7], 16.1 µM in assay [8], 13.7 µM in [9] and 11.2 µM in assay [10]. Besides, the TGI in [1] was determined as 30.2 µM; in [2] it was 31.2 µM; in assay [3] it was 30.6 µM; in [4], 29 µM; in assay [5] it was 26.7 µM; in assay [6], 29.8 µM. Besides, the TGI in assay [7] turned out to be 31.8 µM; in assay [8], 34 µM; in assay [9], 29.5 µM; in assay [10], 30.5 µM.
Turning to `N#CC1(Nc2ccc(-c3ccc(NC4(C#N)CCCC4)cc3)cc2)CCCC1`, the TGI in [1], in [2], in assay [3], in assay [4], in [5] and in [6] was over 100 µM each time. Also, the TGI in assay [7], in assay [8], in assay [9] and in assay [10] was over 100 µM each time.
For `CSc1ccc2c(c1)N(CCC1CCCCN1C)c1ccccc1S2` (stereo not drawn), the GI50 in assay [1] was 9.08 µM and 9.59 µM; in assay [2], 12.7 µM and 3.23 µM; in assay [3], 4.08 µM and 1.86 µM; in assay [4], 3.48 µM and 3.1 µM; in assay [5], 8.8 µM and 2.23 µM; in assay [6], 3.16 µM and 3.05 µM. The GI50 in assay [7] is 6.06 µM and 4.15 µM; in assay [8] it was 10.8 µM and 2.52 µM; in assay [9], 10.7 µM and 4.28 µM; in assay [10], 7.93 µM and 8.06 µM. In addition, the TGI is 24 µM and 25.9 µM in [1]; 27.7 µM and 10.4 µM in assay [2]; 14.3 µM and 3.63 µM in [3]; 13.6 µM and 11.1 µM in [4]; 27.1 µM and 6.05 µM in [5]; 13.6 µM and 7.13 µM in assay [6]. The TGI in assay [7] is 17.9 µM and 14.2 µM; in assay [8], 24.6 µM and 7.23 µM; in assay [9], 23.7 µM and 21.7 µM; in [10], 23.5 µM and 22.7 µM.
For `Cc1[nH]c(C(=O)Nc2ccccc2OC2CCNCC2)c(Cl)c1Cl`, the GI50 in [1] is 0.812 µM; in [2], 0.895 µM; in assay [3] it was 1.01 µM; in assay [4], 0.883 µM; in [5], 1.04 µM; in assay [6], 0.895 µM. The GI50 was 1.05 µM in [7], 0.99 µM in [8], 0.931 µM in assay [9] and 1.09 µM in assay [10]. Moreover, the TGI was found to be 1.63 µM in [1]; 1.7 µM in assay [2]; 1.97 µM in [3]; 1.62 µM in [4]; 2.59 µM in [5]; 1.6 µM in assay [6]. Besides, the TGI in [7] amounted to 2.04 µM; in assay [8] it was 2.39 µM; in [9] it was 1.68 µM; in [10] it was 3.86 µM.
